# Laboratory results from patent publication US10202361B2, “Pyridazinones as herbicides” (E I DU PONT DE NEMOURS AND COMPANY, priority 2014, dated 2019).
# Columns and labels:
# Assay in all cases: Test D pre-/postemergence controlled growth environment herbicide test
# Assay type in all cases: in vivo
# Settings in all cases: scale 0 to 100
# [1] = tested on: oat, wild (wild oat, Avena fatua)
# Source text: (§1) Seeds of plant species selected from bluegrass (annual bluegrass, Poa annua), blackgrass (Alopecurus myosuroides), canarygrass (Phalaris minor), chickweed (common chickweed, Stellaria media), galium (catchweed bedstraw, Galium aparine), downy bromegrass (Bromus tectorum), field poppy (Papaver rhoeas), field violet (Viola arvensis), foxtail, green (green foxtail, Setaria viridis), deadnettle (henbit deadnettle, Lamium amplexicaule), ryegrass, Italian (Italian ryegrass, Lolium multiflorum), kochia (Kochia scoparia), lambsquarters (Chenopodium album), oilseed rape (Brassica napus), pigweed (Amaranthus retroflexus), chamomile (scentless chamomile, Matricaria inodora), Russian thistle (Salsola kali), speedwell (bird's-eye speedwell, Veronica persica), barley, spring (spring barley, Hordeum vulgare), wheat, spring (spring wheat, Triticum aestivum), buckwheat, wild (wild buckwheat, Polygonum convolvulus), mustard, wild (wild mustard, Sinapis arvensis), oat, wild (wild oat, Avena fatua), radish, wild (wild radish, Raphanus raphanistrum), windgrass (Apera spica-venti), barley, winter (winter barley, Hordeum vulgare), and wheat, winter (winter wheat, Triticum aestivum) were planted into a silt loam soil and treated preemergence with test chemicals formulated in a non-phytotoxic solvent mixture which included a surfactant.
# (§2) At the same time, these species were planted in pots containing Redi-Earth® planting medium (Scotts Company, 14111 Scottslawn Road, Marysville, Ohio 43041) comprising spaghnum peat moss, vermiculite, wetting agent and starter nutrients and treated with postemergence applications of the test chemicals formulated in the same manner. Plants ranged in height from 2 to 18 cm (1- to 4-leaf stage). Treated plants and controls were maintained in a controlled growth environment for 14 to 21 d after which time all species were compared to controls and visually evaluated. Plant response ratings, summarized in Table D, are based on a scale of 0 to 100 where 0 is no effect and 100 is complete control. A dash (-) response means no test result.
# [2] = tested on: field poppy (Papaver rhoeas)
# Source text: as §1, §2
# [3] = tested on: foxtail, green (green foxtail, Setaria viridis)
# Source text: as §1, §2
# [4] = tested on: barley, winter (winter barley, Hordeum vulgare)
# Source text: as §1, §2
# [5] = tested on: deadnettle (henbit deadnettle, Lamium amplexicaule)
# Source text: as §1, §2
# [6] = tested on: canarygrass (Phalaris minor)
# Source text: as §1, §2
# [7] = tested on: lambsquarters (Chenopodium album)
# Source text: as §1, §2
# kochia (Kochia scoparia) = tested on: kochia (Kochia scoparia)
# Source text: as §1, §2
# [8] = tested on: blackgrass (Alopecurus myosuroides)
# Source text: as §1, §2
# [9] = tested on: chickweed (common chickweed, Stellaria media)
# Source text: as §1, §2
# [10] = tested on: bluegrass (annual bluegrass, Poa annua)
# Source text: as §1, §2
compound,measurement,setting,value
"Cc1cc(=O)n(-c2ccc(F)cc2)nc1Cc1ccnc(C(F)(F)F)c1 [Compound 1, 2-(4-fluorophenyl)-5-methyl-6-[[2-(trifluoromethyl)-4-pyridinyl]methyl]-3(2H)-pyridazinone]",Plant response rating,"[1]; Postemergence, 31 g ai/ha",10
same,Plant response rating,"[1]; Postemergence, 62 g ai/ha",10
same,Plant response rating,"[1]; Postemergence, 125 g ai/ha",10
same,Plant response rating,"[1]; Postemergence, 250 g ai/ha",10
same,Plant response rating,"[1]; Postemergence, 500 g ai/ha",10
same,Plant response rating,"[1]; Preemergence, 62 g ai/ha",0
same,Plant response rating,"[1]; Preemergence, 125 g ai/ha",15
same,Plant response rating,"[1]; Preemergence, 250 g ai/ha",35
same,Plant response rating,"[1]; Preemergence, 500 g ai/ha",80
same,Plant response rating,"[2]; Postemergence, 31 g ai/ha",30
same,Plant response rating,"[2]; Postemergence, 62 g ai/ha",60
same,Plant response rating,"[2]; Postemergence, 125 g ai/ha",60
same,Plant response rating,"[2]; Postemergence, 250 g ai/ha",80
same,Plant response rating,"[2]; Postemergence, 500 g ai/ha",85
same,Plant response rating,"[2]; Preemergence, 31 g ai/ha",50
same,Plant response rating,"[2]; Preemergence, 62 g ai/ha",95
same,Plant response rating,"[2]; Preemergence, 125 g ai/ha",95
same,Plant response rating,"[2]; Preemergence, 250 g ai/ha",100
same,Plant response rating,"[2]; Preemergence, 500 g ai/ha",100
same,Plant response rating,"[3]; Postemergence, 31 g ai/ha",0
same,Plant response rating,"[3]; Postemergence, 62 g ai/ha",0
same,Plant response rating,"[3]; Postemergence, 125 g ai/ha",0
same,Plant response rating,"[3]; Postemergence, 250 g ai/ha",20
same,Plant response rating,"[3]; Postemergence, 500 g ai/ha",70
same,Plant response rating,"[3]; Preemergence, 31 g ai/ha",0
same,Plant response rating,"[3]; Preemergence, 62 g ai/ha",60
same,Plant response rating,"[3]; Preemergence, 125 g ai/ha",100
same,Plant response rating,"[3]; Preemergence, 250 g ai/ha",100
same,Plant response rating,"[3]; Preemergence, 500 g ai/ha",100
same,Plant response rating,"[4]; Postemergence, 31 g ai/ha",0
same,Plant response rating,"[4]; Postemergence, 62 g ai/ha",0
same,Plant response rating,"[4]; Postemergence, 125 g ai/ha",0
same,Plant response rating,"[4]; Postemergence, 250 g ai/ha",10
same,Plant response rating,"[4]; Postemergence, 500 g ai/ha",15
same,Plant response rating,"[4]; Preemergence, 31 g ai/ha",0
same,Plant response rating,"[4]; Preemergence, 62 g ai/ha",5
same,Plant response rating,"[4]; Preemergence, 125 g ai/ha",5
same,Plant response rating,"[4]; Preemergence, 250 g ai/ha",40
same,Plant response rating,"[4]; Preemergence, 500 g ai/ha",60
same,Plant response rating,"[5]; Postemergence, 31 g ai/ha",10
same,Plant response rating,"[5]; Postemergence, 62 g ai/ha",25
same,Plant response rating,"[5]; Postemergence, 125 g ai/ha",35
same,Plant response rating,"[5]; Postemergence, 250 g ai/ha",50
same,Plant response rating,"[5]; Postemergence, 500 g ai/ha",75
same,Plant response rating,"[5]; Preemergence, 31 g ai/ha",20
same,Plant response rating,"[5]; Preemergence, 62 g ai/ha",40
same,Plant response rating,"[5]; Preemergence, 125 g ai/ha",100
same,Plant response rating,"[5]; Preemergence, 250 g ai/ha",100
same,Plant response rating,"[5]; Preemergence, 500 g ai/ha",100
same,Plant response rating,"[6]; Postemergence, 31 g ai/ha",5
same,Plant response rating,"[6]; Postemergence, 62 g ai/ha",10
same,Plant response rating,"[6]; Postemergence, 125 g ai/ha",15
same,Plant response rating,"[6]; Postemergence, 250 g ai/ha",20
same,Plant response rating,"[6]; Postemergence, 500 g ai/ha",20
same,Plant response rating,"[6]; Preemergence, 31 g ai/ha",0
same,Plant response rating,"[6]; Preemergence, 62 g ai/ha",0
same,Plant response rating,"[6]; Preemergence, 125 g ai/ha",5
same,Plant response rating,"[6]; Preemergence, 250 g ai/ha",15
same,Plant response rating,"[6]; Preemergence, 500 g ai/ha",30
same,Plant response rating,"[7]; Postemergence, 31 g ai/ha",20
same,Plant response rating,"[7]; Postemergence, 62 g ai/ha",20
same,Plant response rating,"[7]; Postemergence, 125 g ai/ha",40
same,Plant response rating,"[7]; Postemergence, 250 g ai/ha",40
same,Plant response rating,"[7]; Postemergence, 500 g ai/ha",45
same,Plant response rating,"[7]; Preemergence, 31 g ai/ha",0
same,Plant response rating,"[7]; Preemergence, 62 g ai/ha",0
same,Plant response rating,"[7]; Preemergence, 125 g ai/ha",20
same,Plant response rating,"[7]; Preemergence, 250 g ai/ha",90
same,Plant response rating,"[7]; Preemergence, 500 g ai/ha",100
same,Plant response rating,"kochia (Kochia scoparia); Postemergence, 31 g ai/ha",15
same,Plant response rating,"kochia (Kochia scoparia); Postemergence, 62 g ai/ha",20
same,Plant response rating,"kochia (Kochia scoparia); Postemergence, 125 g ai/ha",30
same,Plant response rating,"kochia (Kochia scoparia); Postemergence, 250 g ai/ha",50
same,Plant response rating,"kochia (Kochia scoparia); Postemergence, 500 g ai/ha",70
same,Plant response rating,"kochia (Kochia scoparia); Preemergence, 31 g ai/ha",70
same,Plant response rating,"kochia (Kochia scoparia); Preemergence, 125 g ai/ha",80
same,Plant response rating,"kochia (Kochia scoparia); Preemergence, 250 g ai/ha",100
same,Plant response rating,"kochia (Kochia scoparia); Preemergence, 500 g ai/ha",100
same,Plant response rating,"[8]; Postemergence, 31 g ai/ha",0
same,Plant response rating,"[8]; Postemergence, 62 g ai/ha",10
same,Plant response rating,"[8]; Postemergence, 125 g ai/ha",10
same,Plant response rating,"[8]; Postemergence, 250 g ai/ha",20
same,Plant response rating,"[8]; Postemergence, 500 g ai/ha",20
same,Plant response rating,"[8]; Preemergence, 31 g ai/ha",0
same,Plant response rating,"[8]; Preemergence, 62 g ai/ha",0
same,Plant response rating,"[8]; Preemergence, 125 g ai/ha",20
same,Plant response rating,"[8]; Preemergence, 250 g ai/ha",40
same,Plant response rating,"[8]; Preemergence, 500 g ai/ha",75
same,Plant response rating,"[9]; Postemergence, 31 g ai/ha",30
same,Plant response rating,"[9]; Postemergence, 62 g ai/ha",30
same,Plant response rating,"[9]; Postemergence, 125 g ai/ha",50
same,Plant response rating,"[9]; Postemergence, 250 g ai/ha",50
same,Plant response rating,"[9]; Postemergence, 500 g ai/ha",60
same,Plant response rating,"[9]; Preemergence, 31 g ai/ha",100
same,Plant response rating,"[9]; Preemergence, 62 g ai/ha",100
same,Plant response rating,"[9]; Preemergence, 125 g ai/ha",100
same,Plant response rating,"[9]; Preemergence, 250 g ai/ha",100
same,Plant response rating,"[9]; Preemergence, 500 g ai/ha",100
same,Plant response rating,"[10]; Postemergence, 31 g ai/ha",5
same,Plant response rating,"[10]; Postemergence, 62 g ai/ha",5
same,Plant response rating,"[10]; Postemergence, 125 g ai/ha",10
same,Plant response rating,"[10]; Postemergence, 250 g ai/ha",10
same,Plant response rating,"[10]; Postemergence, 500 g ai/ha",10
same,Plant response rating,"[10]; Preemergence, 31 g ai/ha",0
same,Plant response rating,"[10]; Preemergence, 62 g ai/ha",0
same,Plant response rating,"[10]; Preemergence, 125 g ai/ha",0
same,Plant response rating,"[10]; Preemergence, 250 g ai/ha",15
same,Plant response rating,"[10]; Preemergence, 500 g ai/ha",45
